Consider 1 compound from patent US20070105908A1, “Thiazolimine compound and oxazolimine compound” (DAINIPPON SUMITOMO PHARMA CO., LTD., priority 2003, published 2007).

pIC50: −log10 of the molar value.

The assay addresses T1, chymase derived from human skin (Homo sapiens, UniProt P23946).
T1 construct: chymase derived from human skin (Elastin Products Co.); purchased Elastin Products Co; host or cells: human skin (tissue-derived)
T1 sequence (P23946 22-247): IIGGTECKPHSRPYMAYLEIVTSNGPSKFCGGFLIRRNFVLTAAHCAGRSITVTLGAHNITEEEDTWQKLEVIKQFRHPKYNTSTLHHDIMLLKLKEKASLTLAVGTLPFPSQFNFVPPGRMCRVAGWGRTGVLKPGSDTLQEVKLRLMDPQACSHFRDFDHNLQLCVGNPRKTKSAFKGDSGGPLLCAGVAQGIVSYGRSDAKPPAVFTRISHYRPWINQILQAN
The assay is described as follows: Inhibitory effect on chymase (in vitro test). In kind it is biochemical. The note with it: 50 ng chymase, fluorescent synthetic substrate 0.1 mM, pH 8.0, 37° C. for 2 hours. As to the method: Inhibitory Effect on Chymase (In Vitro Test)
To 100 μl of a buffer solution A (50 mM Tris-hydrochloric acid (pH=8.0), 2M NaCl) were added 50 ng of chymase derived from human skin (Elastin Products Co.), a fluorescent synthetic substrate 0.1 mM succinyl-alanylprolyl-phenylalanine-methylcoumalylamide (Peptide Laboratories Co., Ltd.) and a test substance dissolved in dimethyl sulfoxide (DMSO), and the resulting mixture was incubated at 37° C. for 2 hours. Then, the intensity of fluorescence was measured at an excitation wavelength of 355 nm and a measuring wavelength of 460 nm by the use of a fluorescence plate reader (Fluoroscan (Dainippon Pharmaceutical Co., Ltd.)). A fluorescence intensity value obtained without adding the test substance was taken as 100% and a concentration at which a fluorescence intensity value calculated from a regression line became 50% was taken as IC50.

Take `Cc1cn(Cc2cccc3ccccc23)/c(=N/S(=O)(=O)c2ccccc2C(=O)O)s1` [Example 1, 2-({[(2Z)-5-methyl-3-(1-naphthylmethyl)-1,3-thiazol-2(3H)-ylidene]amino}sulfonyl)benzoic acid]: the pIC50 was 8.68.

The pIC50 is the negative decadic logarithm of the IC50, by convention in mol/L.
